Results from patent publication US20190160257A1, “METHODS AND SYSTEMS FOR INHIBITING VASCULAR INFLAMMATION” (Mercator MedSystems, Inc., priority 2002, published 2019).
“Also recorded” adds a separate entry of the source.

Tests used:
[1] = Distribution of tacrolimus after periadventitial injection in swine coronary arteries, LC/MS of tissue; type: in vivo
Description: Distribution of a lipophilic compound (tacrolimus): Eight swine underwent angiography. […] The two remaining arteries served as untreated controls. An untreated heart was used as a negative control. At 48 hours arteries were dissected from the musculature and perivascular fat, cut into 5 mm sections and analyzed by Liquid Chromatography/Mass Spectrometry against tacrolimus calibration standards containing homogenized untreated porcine heart tissue.

[2] = pig, in vivo
Description: Injections were made to depths in the range from 0.8 mm to 1.2 mm One artery was treated intraluminally with 5 mL OGP to determine background vascular uptake. Animals were sacrificed 0.5-23 hr post-procedure following IACUC-approved protocol. After sacrifice, the LAD, RCA and LCx were removed, cut into 4-5 mm sections, which were frozen and cryosectioned. The slides were counter-stained with 0.1% Evan's Blue in PBS (5 min 37 C) to quench autofluorescence, observed with a UV microscope, and scored 0-4+. Representative sections were photographed.

[3] = two injections of 0.5 mL 5% silver nitrate per iliac artery
Description: The animal was sacrificed according to approved protocol following the last injection. The arteries were removed and placed in 10% formalin without perfusion. 2 mm segments were embedded in paraffin, sectioned, and hematoxylin-eosin stained.

[4] = test system: patients with atherosclerotic lower extremity occlusive disease of the superficial femoral or popliteal arteries
Description: Patients with TASC II A, B, and C disease of the superficial femoral and/or popliteal arteries were eligible for this study.
Unique identifier: NCT 01507558). The study design was a prospective, single-center, investigator-initiated study that enrolled consecutive patients who met eligibility requirements from the San Francisco Veteran Affairs Medical Center. This study was approved by the Committee for Human Research and the University of California Clinical and Translational Science Institute. Safety data and outcomes were monitored by a Data Safety and Monitoring Committee that convened on a quarterly basis or as needed.
The primary inclusion criteria were patients suffering from moderate to severe disabling claudication, ischemic rest pain, or minor tissue loss secondary to atherosclerotic lower extremity occlusive disease with TransAtlantic Inter-Society Consensus II […] lesions of the superficial femoral artery (SFA) or popliteal arteries.
The Bullfrog® Micro-Infusion is a rapid-exchange, wire-guided catheter with a balloon-sheathed 0.9-mm-long, 35-gauge (140 μm diameter) needle that delivers infusions to adventitial and perivascular tissues. It is Food and Drug Administration 510(k)-cleared for use in coronary and peripheral arteries. It is advanced through a 6F sheath over a 0.014-inch wire and can treat vessels from 3 to 6 mm in diameter. Three radio-opaque markers on the catheter allow for proper orientation of the needle. Using standard angioplasty inflation equipment, the balloon was inflated exposing the needle. When the balloon contacted the arterial wall opposite the needle tip, contact pressure forced the needle through the vessel wall and into the adventitia and perivascular tissues. The contact pressure of the balloon against the artery wall is limited to 2 atmospheres by a pressure release valve, which prevents damage to the artery wall. A mixture of infusate and contrast (4:1) was then delivered under fluoroscopic guidance into the adventitia. A test injection of 0.1 mL was made to confirm proper adventitial placement of the microinfusion needle tip. If resistance is met, or the test injection enters the blood stream, the balloon was deflated and the injection is attempted in another location by moving the catheter a few millimeters proximally or distally or rotating the catheter a few degrees. Once adventitia placement was confirmed, the remainder of the infusate was delivered at a rate of 1 mL/min. When the infusion was complete, the balloon was deflated, sheathing the needle, and allowing the catheter to be withdrawn. FIG. 12. Injections were administered approximately every 3 cm along the length of the treated arterial segment.
Patients not taking aspirin or clopidogrel before study enrollment received 325 mg of aspirin 12 hours prior the procedure. Postprocedure, patients were prescribed 81 mg/d of aspirin to be taken indefinitely and 75 mg/d of clopidogrel daily for 12 weeks. Vascular access was accomplished by either the contralateral or ipsilateral (anterograde) approach. Patients received a bolus of 5000 IU of heparin after insertion of the sheath in the common femoral artery, and their activated clotting time was kept above 250 seconds with additional heparin as needed. In the case of chronic total occlusions, all lesions were crossed subintimally with a glide wire and glide catheter (Terumo, Somerset, N.J.). After securing access across the lesion with a guidewire, the target lesion was treated according to physician preference. All patients were treated with balloon angioplasty.

[5] = test system: patients with superficial femoral or popliteal artery lesions; assay: DANCE Trial: circulating hsCRP and MCP-1 after revascularization with adventitial and perivascular dexamethasone; type: in vivo, human; conditions: baseline and 24 hours, about 1.6 mg per cm of lesion
Description: An additional study has enrolled 140 patients in the United States, meeting similar enrollment criteria as those in the 20-patient study described above. In these patients, approximately one-third of them have had blood draws right before a revascularization procedure of their superficial femoral or popliteal artery, and then again at 24±4 hours after their revascularization procedure. Arterial lesions in this study were at least 70% occlusive prior to revascularization and up to 15 cm in length. Revascularization therapy was performed with angioplasty, atherectomy, provisional stenting, or a combination thereof. […] The Schillinger 2002 published research would indicate the likelihood for a substantial rise in the hsCRP after revascularization therapy, and that this rise is linked to the rate of restenosis at 6 months following the revascularization procedure. The data from Schillinger 2002 and the 20-patient study described above (the DANCE-Pilot, in which 15 patients had baseline and 24 hour hsCRP levels examined) are plotted in FIG. 15, along with 41 patients from the larger 139 patient group (the DANCE Trial).
Additional data coming out of the interim analysis of the DANCE study includes the first 9 patients to have MCP-1 analyzed from their circulating blood at baseline and at 24 hours. […]

[6] = test system: graft-vein anastomosis and proximal vein of porcine AV grafts; conditions: pig, in vivo
Description: Fourteen days after graft implantation, percutaneous transluminal angioplasty (PTA) was performed (7 mm balloon, 16 atmosphere inflation pressure) at two sites per graft: across the graft-vein anastomosis (GVA) and in the proximal vein (PV). […] Infusions of 3 ml were always consistent between the 2 grafts in each animal.

C=CC[C@@H]1/C=C(\C)C[C@H](C)C[C@H](OC)[C@H]2O[C@@](O)(C(=O)C(=O)N3CCCC[C@H]3C(=O)O[C@H](/C(C)=C/[C@@H]3CC[C@@H](O)[C@H](OC)C3)[C@H](C)[C@@H](O)CC1=O)[C@H](C)C[C@@H]2OC [tacrolimus]
segments in which drug was detected ([1]; 48 hours, including side branches and uninjected arteries): 285/293 | subjects with distribution to the entire coronary tree ([1]; periadventitial delivery, higher concentrations at injection sites): 8/8

Oregon Green® 488 paclitaxel [OGP]
circumferential staining [2]: staining was observed throughout the circumference of the artery

O=[N+]([O-])[O-].[Ag+] [Silver Nitrate]
staining: site of delivery and diffusion [3]: delivery outside the external elastic lamina of the vessels and diffusion around the circumference

C[C@@H]1C[C@H]2[C@@H]3CCC4=CC(=O)C=C[C@]4(C)[C@@]3(F)[C@@H](O)C[C@]2(C)[C@@]1(O)C(=O)CO [dexamethasone]
patients with target lesion restenosis ([4]; 6 month follow up, PSV ratio >2.4 or occlusion by ultrasound): two | Rutherford classification scores versus pre-op baseline ([4]; 6 months, all patients but the one with target lesion restenosis): improved | mean Rutherford score ([4]; 6 months, preoperative 3.1±0.71, P<0.00001): 0.5±0.70 | median Rutherford score ([4]; 6 months, preoperative median 3.0): 0 | mean ABI versus baseline ([4]; all time points post procedure, FIG. 14): significantly improved | patients with only partial coverage by contrast distribution (grade=B) ([4]; assessed by fluoroscopy): one | subjects with complete circumferential coverage of the lesion with the infusate (grade=A) ([4]; assessed by fluoroscopy immediately after the infusion): 19 out of 20 subjects | patients with loss of primary patency (duplex ultrasound binary restenosis) ([4]; by 6 months, 20 patients): Two | anticipated rise of hsCRP ([4]; compared with Schillinger 2002): appears to be dampened | patients with target extremity stenosis not within the treated segment ([4]; follow up 381±181 days): Three | ABI measurements ([4]; one-year follow up, N=10, P<0.0001 vs baseline): 1.04±0.21 | PSVR ([4]; one-year follow up, patients without index lesion restenosis, N=8): 1.1±0.6 | CRP at 24 hours following the procedure ([4]; preoperative 6.9±8.5, P=0.14): 14.0 ± 23.1 mg/L | increase of CRP at 24 hours ([4]; versus preoperative, not statistically significant (P=0.14)): 103% | drug or device-related adverse events reported ([4]; within 30 days, acute hyperglycemia in one patient, controlled by insulin): one | effect on hsCRP inflammatory spike after revascularization ([5]; 41 patients, versus Schillinger 2002, FIG. 15): capable of reducing the inflammatory spike | change in circulating MCP-1 ([5]; first 9 patients, FIG. 16): marked drop in MCP-1; also recorded: a drop in MCP-1 | adverse effect compared to placebo in the adventitia [6]: no observable adverse effect
